Laboratory results taken from ChEMBL document CHEMBL3085750, “Discovery of 2-methylpyridine-based biaryl amides as γ-secretase modulators for the treatment of Alzheimer's disease” (Bioorg Med Chem Lett, 2013).
Activity calls are given as the source filed them. The calls are words filed in the database; no cut-off is given here.

Columns and labels:
[1] = biological target: Gamma-secretase; assay: Modulation of gamma-secretase in HEK293 cells expressing guinea pig Swedish mutant SFV-APP695sw assessed as inhibition of amyloid beta-42 production after 16 to 18 hrs by HTRF assay; format: cell-based, Homo sapiens
[2] = biological target: Gamma-secretase; assay: Modulation of gamma-secretase in HEK293 cells expressing guinea pig Swedish mutant SFV-APP695sw assessed as inhibition of amyloid beta-40 production after 16 to 18 hrs by HTRF assay; format: cell-based, Homo sapiens
[3] = Ratio of drug level in brain to plasma in Sprague-Dawley rat; format: ADME, cell-free; conditions: read-out: BPR
[4] = biological target: Cytochrome P450 2D6 (Homo sapiens, UniProt P10635); assay: Inhibition of CYP2D6 (unknown origin) after 10 mins; format: ADME
[5] = Metabolic stability in rat liver microsomes at 1 uM after 30 mins; format: ADME; conditions: read-out: Stability
[6] = Metabolic stability in human liver microsomes at 1 uM after 30 mins; format: ADME; conditions: read-out: Stability
[7] = biological target: Cytochrome P450 3A4 (Homo sapiens, UniProt P08684); assay: Inhibition of CYP3A4 (unknown origin) after 5 mins; format: ADME
[8] = system: Rattus norvegicus; assay: Reduction of amyloid beta-42 level in Sprague-Dawley rat CSF at 100 mg/kg, po after 4 hrs by immunoassay relative to control; format: functional
[9] = Apparent permeability in pig LLC-PK1 cells; format: ADME, cell-based, Sus scrofa
[10] = Drug level in Sprague-Dawley rat CSF; format: ADME, Cerebrospinal fluid; conditions: in vivo, read-out: Ct
[11] = system: Plasma; assay: Unbound plasma concentration in Sprague-Dawley rat; format: ADME, cell-free
[12] = Ratio of drug level in brain to plasma in mouse at 10 mg/kg, po after 2 hrs; format: ADME, organism-based; set-up: dose 10 mg/kg, route oral; conditions: read-out: BPR

Sequence of Cytochrome P450 3A4 (P08684 whole entry): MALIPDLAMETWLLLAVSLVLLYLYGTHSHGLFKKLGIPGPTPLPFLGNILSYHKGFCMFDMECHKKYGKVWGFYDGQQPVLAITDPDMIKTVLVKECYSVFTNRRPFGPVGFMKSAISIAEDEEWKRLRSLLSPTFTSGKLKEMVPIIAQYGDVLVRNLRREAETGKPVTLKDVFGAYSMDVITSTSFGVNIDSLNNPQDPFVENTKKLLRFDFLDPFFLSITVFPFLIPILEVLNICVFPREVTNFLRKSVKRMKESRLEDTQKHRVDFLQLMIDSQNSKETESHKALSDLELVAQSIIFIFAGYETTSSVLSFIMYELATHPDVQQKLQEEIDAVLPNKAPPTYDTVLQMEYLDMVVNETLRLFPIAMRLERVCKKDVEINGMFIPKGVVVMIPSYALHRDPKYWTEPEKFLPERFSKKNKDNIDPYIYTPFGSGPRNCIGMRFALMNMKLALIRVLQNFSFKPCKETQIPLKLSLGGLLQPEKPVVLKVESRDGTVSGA
Sequence of Cytochrome P450 2D6 (P10635 whole entry): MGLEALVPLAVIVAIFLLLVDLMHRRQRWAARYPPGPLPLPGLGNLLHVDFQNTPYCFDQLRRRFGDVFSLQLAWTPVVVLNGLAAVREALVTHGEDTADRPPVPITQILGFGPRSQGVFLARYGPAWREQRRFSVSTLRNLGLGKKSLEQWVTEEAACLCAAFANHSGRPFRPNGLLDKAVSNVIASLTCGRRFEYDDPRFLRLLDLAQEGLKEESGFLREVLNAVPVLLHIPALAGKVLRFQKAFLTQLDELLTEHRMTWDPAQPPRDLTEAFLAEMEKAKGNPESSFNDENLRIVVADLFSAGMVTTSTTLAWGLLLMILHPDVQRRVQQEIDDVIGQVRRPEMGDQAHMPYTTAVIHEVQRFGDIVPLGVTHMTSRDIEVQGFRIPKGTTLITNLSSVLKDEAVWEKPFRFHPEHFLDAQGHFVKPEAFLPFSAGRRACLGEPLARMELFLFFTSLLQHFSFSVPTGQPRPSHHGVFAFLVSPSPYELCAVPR

IC50 [1]	IC50 [2]	Kp [3]	IC50 [4]	microsomal CLint at 1 µM [5]	microsomal CLint at 1 µM [6]	IC50 [7]	Papp [9]	concentration [10]	Cp(f) [11]	Kp at 2 h [12]	Compound	Activity [8]
130 nM	560 nM	–	–	–	–	–	–	–	–	–	CCN(CC)c1ccc(C)c(Nc2nc(-c3ccc(-n4cnc(C)c4)cc3)cs2)c1	–
> 10000 nM	–	2	2600 nM	< 14 µL/min/mg	< 14 µL/min/mg	> 27000 nM	–	–	–	–	Cc1cc(-c2ccc(NC(=O)[C@@H](C)c3cc(C(F)(F)F)cc(C(F)(F)F)c3)cc2)ccn1	inactive
2750 nM	–	–	200 nM	85 µL/min/mg	35 µL/min/mg	600 nM	–	–	–	0.09	O=S(=O)(Nc1ccc(-c2ccncc2)cc1)c1cc(Cl)cc(Cl)c1	–
210 nM	–	–	700 nM	324 µL/min/mg	371 µL/min/mg	12200 nM	–	–	–	–	CCc1cc(-c2ccc(NS(=O)(=O)c3cc(C(F)(F)F)cc(C(F)(F)F)c3)cc2)ccn1	–

Further lines, the compound ahead of its results:

Compound	IC50 [1]	IC50 [2]	Kp [3]	IC50 [4]	microsomal CLint at 1 µM [5]	microsomal CLint at 1 µM [6]	IC50 [7]	Papp [9]	concentration [10]	Cp(f) [11]	Kp at 2 h [12]	Activity [8]
Cc1cc(-c2ccc(NC(=O)[C@H](CC(C)C)c3cccc(-c4ccc(N5CCOCC5)cc4)c3)cc2)ccn1	20 nM	–	–	–	–	–	–	< 1 ×10⁻⁶ cm/s	2 nM	290 nM	–	27%
O=S(=O)(Nc1ccc(-n2ccnc2)cc1)c1cc(Cl)cc(Cl)c1	2100 nM	–	–	100 nM	< 14 µL/min/mg	< 14 µL/min/mg	100 nM	–	–	–	0.07	–
O=S(=O)(Nc1ccc(-c2nnco2)cc1)c1cc(Cl)cc(Cl)c1	2440 nM	–	–	15100 nM	287 µL/min/mg	94 µL/min/mg	27000 nM	–	–	–	0.16	–
O=S(=O)(Nc1ccc(-c2cnco2)cc1)c1cc(Cl)cc(Cl)c1	1540 nM	–	–	2900 nM	166 µL/min/mg	32 µL/min/mg	1600 nM	–	–	–	0.03	–
